We go through 4 compounds from ChEMBL document CHEMBL4393671, “Design of a Cyclin G Associated Kinase (GAK)/Epidermal Growth Factor Receptor (EGFR) Inhibitor Set to Interrogate the Relationship of EGFR and GAK in Chordoma” (J Med Chem, 2019).

Data set [1] addresses Pyruvate kinase PKM (Homo sapiens) (UniProt P14618). In words: Binding affinity to PKM in human SUM159 cell lysates by multiplexed inhibitor bead profiling-based LC-MS/MS analysis. Particulars: Lysate. It is filed as subcellular.
Data set [2] can be described thus: cells. It is filed as functional, cell-based. Particulars: Homo sapiens, 72 h.
Description: Antiproliferative activity against human UCH14 cells measured after 72 hrs by alamar blue assay
Data set [3] can be described thus: cells. In kind it is functional, cell-based. Conditions: Homo sapiens, 72 h. The source holds these as a separate data set.
Description: Antiproliferative activity against human UCH12 cells measured after 72 hrs by alamar blue assay
Data set [4] can be described thus: cells. It is filed as functional, cell-based. Particulars: Homo sapiens, 72 h. The source holds these as a separate data set.
Description: Antiproliferative activity against human CH22 cells measured after 72 hrs by alamar blue assay
Data set [5] addresses T1, Cyclin-G-associated kinase (Homo sapiens, UniProt O14976).
T1 sequence (O14976 whole entry): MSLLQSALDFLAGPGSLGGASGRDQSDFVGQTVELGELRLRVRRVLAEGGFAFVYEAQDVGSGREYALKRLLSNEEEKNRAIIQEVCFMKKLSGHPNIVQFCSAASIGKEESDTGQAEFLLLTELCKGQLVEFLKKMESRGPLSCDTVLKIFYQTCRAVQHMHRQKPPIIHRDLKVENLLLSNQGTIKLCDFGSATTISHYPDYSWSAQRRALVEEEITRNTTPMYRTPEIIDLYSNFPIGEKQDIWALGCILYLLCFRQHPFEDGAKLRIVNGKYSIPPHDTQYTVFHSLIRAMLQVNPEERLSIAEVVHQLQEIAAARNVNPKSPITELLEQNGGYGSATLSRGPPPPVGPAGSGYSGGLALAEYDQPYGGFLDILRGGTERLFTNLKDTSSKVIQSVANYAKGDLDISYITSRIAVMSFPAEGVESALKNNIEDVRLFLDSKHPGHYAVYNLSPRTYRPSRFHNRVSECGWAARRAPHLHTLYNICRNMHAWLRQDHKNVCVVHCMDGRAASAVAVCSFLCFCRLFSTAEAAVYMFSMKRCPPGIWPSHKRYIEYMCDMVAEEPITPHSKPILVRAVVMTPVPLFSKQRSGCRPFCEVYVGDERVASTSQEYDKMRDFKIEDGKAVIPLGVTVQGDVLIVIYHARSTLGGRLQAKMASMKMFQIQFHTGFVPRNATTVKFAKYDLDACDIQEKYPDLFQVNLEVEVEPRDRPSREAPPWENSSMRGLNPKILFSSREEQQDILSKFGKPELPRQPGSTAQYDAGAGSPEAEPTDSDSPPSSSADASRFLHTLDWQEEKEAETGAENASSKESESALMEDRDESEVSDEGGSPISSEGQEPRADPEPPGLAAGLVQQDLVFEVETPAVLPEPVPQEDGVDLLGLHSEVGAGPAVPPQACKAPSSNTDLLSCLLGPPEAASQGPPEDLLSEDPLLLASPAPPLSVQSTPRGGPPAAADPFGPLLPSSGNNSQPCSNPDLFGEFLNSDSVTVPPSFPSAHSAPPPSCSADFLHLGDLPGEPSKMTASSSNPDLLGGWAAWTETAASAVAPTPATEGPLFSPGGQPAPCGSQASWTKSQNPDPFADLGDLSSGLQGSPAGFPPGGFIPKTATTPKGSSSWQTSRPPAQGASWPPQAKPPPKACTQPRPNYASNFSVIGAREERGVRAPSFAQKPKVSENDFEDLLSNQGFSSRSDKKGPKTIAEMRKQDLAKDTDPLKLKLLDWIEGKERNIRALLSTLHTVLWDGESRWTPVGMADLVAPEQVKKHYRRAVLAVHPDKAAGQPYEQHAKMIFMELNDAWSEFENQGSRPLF
The data set is described as follows: Binding affinity to wild-type human partial length GAK (G13 to Y338 residues) expressed in bacterial expression system by Kinomescan method.

Data set [6] deals with T1, Cyclin-G-associated kinase. The data set is described as follows: Inhibition of tracer 5 binding to human N-terminal nano luciferase-fused GAK expressed in HEK293 cells measured after 2 hrs by nanoBRET assay. It is filed as cell-based.
Data set [7] is described as follows: cells. It is filed as ADME, cell-based. Particulars: Homo sapiens, WS1, 72 h.
Description: Cytotoxicity against human WS1 cells measured after 72 hrs by alamar blue assay
In data set [8] the target is Mitotic checkpoint serine/threonine-protein kinase BUB1 (Homo sapiens) (UniProt O43683). The data set is described as follows: Binding affinity to BUB1 in human SUM159 cell lysates by multiplexed inhibitor bead profiling-based LC-MS/MS analysis. It is filed as subcellular. Conditions: Lysate.
The nature of data set [9]: cells. It is filed as functional, cell-based. Conditions: Homo sapiens, 72 h. This is another data set of the same source.
Description: Antiproliferative activity against human UCH7 cells measured after 72 hrs by alamar blue assay
Data set [10] addresses T2, Cyclin-G-associated kinase (Homo sapiens) (UniProt O14976).
T2 sequence (whole entry): T1 sequence (O14976 whole entry)
In words: Binding affinity to GAK in human SUM159 cell lysates by multiplexed inhibitor bead profiling-based LC-MS/MS analysis. It is filed as subcellular. Particulars: Lysate.

A short description of data set [11]: cells. In kind it is functional, cell-based. Conditions: Homo sapiens, UCH1, 72 h.
Description: Antiproliferative activity against human UCH1 cells measured after 72 hrs by alamar blue assay
A short description of data set [12]: cells. Conditions: Homo sapiens, UCH2, 72 h. It is filed as functional, cell-based.
Description: Antiproliferative activity against human UCH2 cells measured after 72 hrs by alamar blue assay
For data set [13], the target named is T2, Cyclin-G-associated kinase (Homo sapiens). In words: Inhibition of tracer 5 binding to human N-terminal nano luciferase-fused GAK expressed in HEK293 cells at 5 uM measured after 2 hrs by nanoBRET assay relative to control. It is filed as cell-based. A general note: Bioluminescence resonance energy transfer reports proximity on the nanometre scale.
The nature of data set [14]: cells. In kind it is functional, cell-based. Particulars: Homo sapiens, 72 h. This is another data set of the same source.
Description: Antiproliferative activity against human UMCHOR1 cells measured after 72 hrs by alamar blue assay
Data set [15] concerns the target Aurora kinase B (Homo sapiens) (UniProt Q96GD4). In words: Binding affinity to AURKB in human SUM159 cell lysates by multiplexed inhibitor bead profiling-based LC-MS/MS analysis. It is filed as subcellular. Conditions: Lysate.
In data set [16] the target is T3, Dual specificity mitogen-activated protein kinase kinase 5 (Homo sapiens) (UniProt Q13163).
T3 sequence (whole entry): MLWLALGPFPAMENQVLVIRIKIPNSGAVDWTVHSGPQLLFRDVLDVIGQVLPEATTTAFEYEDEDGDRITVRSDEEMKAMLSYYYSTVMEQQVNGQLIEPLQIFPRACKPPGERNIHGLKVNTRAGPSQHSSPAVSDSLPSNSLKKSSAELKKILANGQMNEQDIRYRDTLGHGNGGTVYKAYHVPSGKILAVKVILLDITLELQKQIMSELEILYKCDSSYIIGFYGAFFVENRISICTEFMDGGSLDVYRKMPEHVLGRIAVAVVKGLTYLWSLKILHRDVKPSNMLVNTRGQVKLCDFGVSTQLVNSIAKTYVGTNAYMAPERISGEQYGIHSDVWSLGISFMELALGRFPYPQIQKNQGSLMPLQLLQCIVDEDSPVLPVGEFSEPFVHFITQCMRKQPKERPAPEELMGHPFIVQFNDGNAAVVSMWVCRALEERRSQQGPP
In words: Binding affinity to MAP2K5 in human SUM159 cell lysates by multiplexed inhibitor bead profiling-based LC-MS/MS analysis. In kind it is subcellular. Conditions: Lysate.

Data set [17] deals with Nucleoside diphosphate kinase B (Homo sapiens) (UniProt P22392). In words: Binding affinity to NME2 in human SUM159 cell lysates by multiplexed inhibitor bead profiling-based LC-MS/MS analysis. It is filed as subcellular. Particulars: Lysate.
For data set [18], the target named is T4, Epidermal growth factor receptor (Homo sapiens, UniProt P00533).
Description: Binding affinity to wild-type human partial length EGFR (R669 to V1011 residues) expressed in bacterial expression system by Kinomescan method
Data set [19] deals with T4, Epidermal growth factor receptor. It is filed as cell-based.
Description: Inhibition of EGFR in human A431 cells assessed as reduction in EGF-stimulated EGFR autophosphorylation preincuabted for 90 mins followed by EGF-stimulation by sandwich-ELISA
Data set [20] shares this target. In words: Inhibition of EGFR in human UCH1 cells assessed as reduction in EGF-induced EGFR phosphorylation at Y1068 residue at 10 uM preincubated for 4 hrs followed by EGF--stimulation and measured after 15 mins by Western blot analysis relative to control. It is filed as cell-based. (In general: In western blotting, separated proteins are transferred to a membrane and probed.)

The target is the same in data set [21]. The data set is described as follows: Inhibition of EGFR in human UCH2 cells assessed as reduction in EGF-induced EGFR phosphorylation at Y1068 residue at 1 uM preincubated for 4 hrs followed by EGF--stimulation and measured after 15 mins by Western blot analysis relative to control. In kind it is cell-based.
The target is the same in data set [22]. In words: Inhibition of EGFR in human UCH1 cells assessed as reduction in EGF-induced EGFR phosphorylation at Y1068 residue at 1 uM preincubated for 4 hrs followed by EGF--stimulation and measured after 15 mins by Western blot analysis relative to control. It is filed as cell-based.
A short description of data set [23]: Effect on total EGFR expression in human UCH2 cells at 1 to 10 uM measured after 4 hrs by Western blot analysis. In kind it is ADME, cell-based.
The target of data set [24] is T4, Epidermal growth factor receptor. The data set is described as follows: Inhibition of EGFR in human UCH2 cells assessed as reduction in EGF-induced EGFR phosphorylation at Y1068 residue at 10 uM preincubated for 4 hrs followed by EGF--stimulation and measured after 15 mins by Western blot analysis relative to control. It is filed as cell-based.
Data set [25] in a line: Effect on total EGFR expression in human UCH1 cells at 1 to 10 uM measured after 4 hrs by Western blot analysis. In kind it is ADME, cell-based.
The target in data set [26] is T2, Cyclin-G-associated kinase (Homo sapiens). In words: Binding affinity to wild-type human partial length GAK (G13 to Y338 residues) expressed in bacterial expression system at 1 uM by Kinomescan method relative to control.

Molecules are shown by their SMILES. Calls of active or inactive are those of the source. No cut-off for these calls is given here.

T4 sequence (P00533 whole entry): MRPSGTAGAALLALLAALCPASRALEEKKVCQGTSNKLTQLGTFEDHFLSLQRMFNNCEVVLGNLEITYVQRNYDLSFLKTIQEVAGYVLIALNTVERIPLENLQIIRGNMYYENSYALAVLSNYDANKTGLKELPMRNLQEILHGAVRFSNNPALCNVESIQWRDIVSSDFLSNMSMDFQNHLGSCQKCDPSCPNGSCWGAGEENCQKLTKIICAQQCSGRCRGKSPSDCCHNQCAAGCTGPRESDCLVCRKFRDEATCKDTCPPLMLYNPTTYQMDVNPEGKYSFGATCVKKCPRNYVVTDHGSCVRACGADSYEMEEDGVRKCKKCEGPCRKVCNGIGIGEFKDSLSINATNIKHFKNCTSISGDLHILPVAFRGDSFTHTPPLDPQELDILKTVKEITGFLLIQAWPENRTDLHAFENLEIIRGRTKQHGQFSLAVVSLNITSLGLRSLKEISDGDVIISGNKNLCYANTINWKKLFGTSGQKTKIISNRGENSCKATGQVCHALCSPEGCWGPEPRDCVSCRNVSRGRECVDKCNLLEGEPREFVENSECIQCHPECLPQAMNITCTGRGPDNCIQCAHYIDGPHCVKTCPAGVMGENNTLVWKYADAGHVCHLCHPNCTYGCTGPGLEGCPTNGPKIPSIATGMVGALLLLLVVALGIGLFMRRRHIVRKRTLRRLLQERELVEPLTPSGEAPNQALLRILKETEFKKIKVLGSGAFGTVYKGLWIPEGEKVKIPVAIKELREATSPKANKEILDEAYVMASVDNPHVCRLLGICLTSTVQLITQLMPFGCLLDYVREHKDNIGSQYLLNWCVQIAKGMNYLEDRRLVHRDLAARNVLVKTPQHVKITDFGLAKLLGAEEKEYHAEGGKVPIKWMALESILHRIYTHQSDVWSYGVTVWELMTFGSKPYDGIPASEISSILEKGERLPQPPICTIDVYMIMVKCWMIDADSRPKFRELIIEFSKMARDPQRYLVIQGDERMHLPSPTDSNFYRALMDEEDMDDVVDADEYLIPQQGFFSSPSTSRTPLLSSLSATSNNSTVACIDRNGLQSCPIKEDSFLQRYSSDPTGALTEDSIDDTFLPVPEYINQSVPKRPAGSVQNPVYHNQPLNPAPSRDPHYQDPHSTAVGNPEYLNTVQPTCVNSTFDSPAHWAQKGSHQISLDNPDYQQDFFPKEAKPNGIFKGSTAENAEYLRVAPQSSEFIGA
Sequence of Aurora kinase B (Homo sapiens) (Q96GD4 whole entry): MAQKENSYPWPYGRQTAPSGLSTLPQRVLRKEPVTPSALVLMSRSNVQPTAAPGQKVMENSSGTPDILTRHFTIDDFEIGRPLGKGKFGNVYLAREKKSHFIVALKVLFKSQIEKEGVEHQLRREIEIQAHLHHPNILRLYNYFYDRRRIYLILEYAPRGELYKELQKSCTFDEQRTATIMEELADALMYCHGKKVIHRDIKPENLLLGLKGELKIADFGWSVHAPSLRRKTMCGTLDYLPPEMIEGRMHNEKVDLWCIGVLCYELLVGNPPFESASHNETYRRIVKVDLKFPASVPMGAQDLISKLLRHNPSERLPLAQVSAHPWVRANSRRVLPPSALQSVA
Sequence of Pyruvate kinase PKM (Homo sapiens) (P14618 2-531 limits assumed): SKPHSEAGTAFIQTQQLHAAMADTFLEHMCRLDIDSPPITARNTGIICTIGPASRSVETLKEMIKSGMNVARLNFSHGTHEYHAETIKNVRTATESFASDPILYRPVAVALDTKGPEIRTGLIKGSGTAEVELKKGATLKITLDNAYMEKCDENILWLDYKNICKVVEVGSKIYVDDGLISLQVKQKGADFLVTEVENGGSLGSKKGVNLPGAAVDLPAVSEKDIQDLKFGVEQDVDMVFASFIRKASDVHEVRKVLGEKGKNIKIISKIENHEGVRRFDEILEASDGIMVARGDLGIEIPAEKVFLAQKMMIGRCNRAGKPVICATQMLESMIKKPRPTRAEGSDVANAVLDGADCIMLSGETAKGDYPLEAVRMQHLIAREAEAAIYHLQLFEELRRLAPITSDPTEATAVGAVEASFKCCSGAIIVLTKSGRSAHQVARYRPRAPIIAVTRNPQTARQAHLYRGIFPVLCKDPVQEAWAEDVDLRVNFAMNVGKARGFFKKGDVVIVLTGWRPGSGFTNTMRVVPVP
Sequence of Mitotic checkpoint serine/threonine-protein kinase BUB1 (Homo sapiens) (O43683 whole entry, looked up): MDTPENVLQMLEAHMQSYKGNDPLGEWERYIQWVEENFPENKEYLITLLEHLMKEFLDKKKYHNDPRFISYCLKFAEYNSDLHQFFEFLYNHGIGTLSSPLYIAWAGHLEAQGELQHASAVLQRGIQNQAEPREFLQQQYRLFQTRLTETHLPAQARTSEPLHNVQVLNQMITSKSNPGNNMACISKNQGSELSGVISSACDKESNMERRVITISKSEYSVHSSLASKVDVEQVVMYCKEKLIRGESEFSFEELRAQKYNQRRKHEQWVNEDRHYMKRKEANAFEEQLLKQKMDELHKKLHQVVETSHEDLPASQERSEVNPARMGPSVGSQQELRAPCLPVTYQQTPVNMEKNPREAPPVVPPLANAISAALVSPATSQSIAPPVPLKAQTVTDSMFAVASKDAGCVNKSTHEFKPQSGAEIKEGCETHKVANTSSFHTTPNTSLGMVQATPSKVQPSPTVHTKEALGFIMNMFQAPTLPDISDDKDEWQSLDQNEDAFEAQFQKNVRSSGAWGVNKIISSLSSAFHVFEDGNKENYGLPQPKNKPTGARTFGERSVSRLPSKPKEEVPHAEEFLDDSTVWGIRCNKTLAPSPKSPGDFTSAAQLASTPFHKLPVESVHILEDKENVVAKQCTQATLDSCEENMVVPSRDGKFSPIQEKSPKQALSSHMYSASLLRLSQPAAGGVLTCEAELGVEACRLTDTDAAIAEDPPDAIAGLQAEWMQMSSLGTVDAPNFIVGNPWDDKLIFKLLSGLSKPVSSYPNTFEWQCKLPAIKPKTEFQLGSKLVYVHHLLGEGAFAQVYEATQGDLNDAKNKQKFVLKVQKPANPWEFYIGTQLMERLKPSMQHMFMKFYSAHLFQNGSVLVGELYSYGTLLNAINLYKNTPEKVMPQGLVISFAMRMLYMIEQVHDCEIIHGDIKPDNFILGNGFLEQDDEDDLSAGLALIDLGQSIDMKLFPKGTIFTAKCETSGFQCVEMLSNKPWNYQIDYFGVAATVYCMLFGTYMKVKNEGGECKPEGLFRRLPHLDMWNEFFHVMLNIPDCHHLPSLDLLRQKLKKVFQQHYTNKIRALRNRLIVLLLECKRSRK
Sequence of Nucleoside diphosphate kinase B (Homo sapiens) (P22392 whole entry): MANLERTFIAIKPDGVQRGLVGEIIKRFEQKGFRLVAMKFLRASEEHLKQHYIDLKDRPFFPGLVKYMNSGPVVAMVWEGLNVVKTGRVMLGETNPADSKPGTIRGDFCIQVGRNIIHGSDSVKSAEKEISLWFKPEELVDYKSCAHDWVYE

By IC50 is commonly meant the concentration needed to halve the response being measured. High values mean lower potency, low ones higher potency. For orientation: Kd means a measure of binding affinity in units of concentration. A low value points to higher affinity. As to `COc1cc2nccc(Nc3cccc(Br)c3)c2cc1OC`, the outcome in [1], in data set [8] and in data set [10] was Active. For the same compound, the IC50 in “cells [2]” was more than 50 µM; in “cells [3]”, more than 50 µM; in “cells [4]” it was 6.5 µM; in data set [6], 0.51 µM; in “cells [7]”, 2.9 µM; in “cells [9]”, more than 50 µM. Also, the IC50 in the data set “cells [11]” worked out at 3.6 µM; in the data set “cells [12]”, 7.9 µM. The same compound registered a Kd in data set [5] of 0.24 µM.

What is called inhibition is the drop in the measured response relative to a control, in per cent. As for `COc1cc2nccc(Nc3ccc(OCc4cccc(F)c4)c(Cl)c3)c2cc1OC`, the IC50 came to 7 µM in the data set “cells [2]”; 1.5 µM in the data set “cells [14]”; 5.5 µM in the data set “cells [3]”; 1 µM in the data set “cells [4]”; 1.7 µM in [19]; 8.6 µM in the data set “cells [7]”. Further, the figures for the IC50 in “cells [9]”, in the data set “cells [11]” and in the data set “cells [12]” were 2.7 µM, 2.6 µM and 2.9 µM, respectively. In data set [13], this compound displayed an inhibition of 22%. In addition, the outcome in data set [15], in data set [16] and in data set [17] was Active. Also, the Kd in data set [5] was more than 10 µM; in data set [18], 0.032 µM.

On to `C#Cc1cccc(Nc2ncnc3cc(OC)c(OC)cc23)c1`, for which the 50% inhibitory concentration (IC50) in “cells [2]” was more than 50 µM; in “cells [14]” it was 18 µM; in the data set “cells [3]” it was more than 50 µM; in the data set “cells [4]”, more than 50 µM; in data set [6], 0.072 µM; in “cells [7]”, 4.4 µM. In addition, the IC50 in the data set “cells [9]” is 23 µM; in the data set “cells [11]”, 0.92 µM; in the data set “cells [12]”, more than 50 µM. Moreover, the inhibition turned out to be 100% in [20], 100% in data set [21], 63.4% in data set [22] and 100% in data set [24]. For the same compound, the Activity entry in data set [23] and in data set [25] was “Non-Toxic” in each case. For the same compound, the Kd in data set [5] came out at 0.0068 µM; in data set [18], 0.00055 µM. Besides, the result in data set [10] was Active.

As to `CS(=O)(=O)CCNCc1ccc(-c2ccc3ncnc(Nc4ccc(OCc5cccc(F)c5)c(Cl)c4)c3c2)o1` [LAPATINIB], the IC50 is more than 50 µM in “cells [2]”; 25 µM in “cells [14]”; 33 µM in “cells [3]”; 25 µM in “cells [4]”; 13 µM in “cells [7]”; 26 µM in “cells [9]”. The figures for the IC50 in “cells [11]” and in “cells [12]” were 3.2 µM and more than 50 µM, respectively. The compound further showed an inhibition in data set [13] of 0%. The compound also had an Activity in data set [26] of less than 50%.
